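48-hour exposure; five concentrations; linearly interpolated endpoints. TGI denotes the concentration required for complete inhibition of growth.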

Test systems include NCI/ADR-RES ovarian; U251 CNS; UO-31 renal; DU-145 prostate; OVCAR-4 ovarian; IGROV1 ovarian; K-562 leukemia; HCT-15 colon; HCT-116 colon; COLO 205 colon.
Test in all cases: NCI tumour cell line growth inhibition, 48 h

As to `COC(=O)[C@H](Cc1ccccc1)NC(=O)N(CCNC(=O)OC(C)(C)C)c1ccccc1`, the TGI in the assay with NCI/ADR-RES ovarian, in the assay with U251 CNS, in the assay on UO-31 renal, with DU-145 prostate, with OVCAR-4 ovarian and with IGROV1 ovarian was above 100 µM in each case. The TGI in the assay on K-562 leukemia, in the assay on HCT-15 colon, in the assay on HCT-116 colon and in the assay with COLO 205 colon was above 100 µM in each case.
As to `COc1ccc2nc3cc(Cl)ccc3c(NCCCCCC(=O)NC(COc3ccc4ccc5cccnc5c4n3)COc3ccc4ccc5cccnc5c4n3)c2c1`, the TGI with NCI/ADR-RES ovarian is 73.7 µM; in the assay on U251 CNS, 26.7 µM; in the assay with UO-31 renal, 10.7 µM; with DU-145 prostate, 23.6 µM; in the assay with OVCAR-4 ovarian it was 99.8 µM; in the assay on IGROV1 ovarian, 37.4 µM. In addition, the TGI in the assay with K-562 leukemia was 26.3 µM; with HCT-15 colon, above 100 µM; in the assay on HCT-116 colon it was 23.5 µM; in the assay on COLO 205 colon it was 32.2 µM.
As for `O=c1c2cc([N+](=O)[O-])ccc2n2n1CCCCC2`, the TGI in the assay with NCI/ADR-RES ovarian, in the assay with U251 CNS, with UO-31 renal, in the assay on DU-145 prostate, in the assay on OVCAR-4 ovarian and in the assay on IGROV1 ovarian was above 100 µM each time. The TGI with K-562 leukemia, with HCT-15 colon, in the assay with HCT-116 colon and with COLO 205 colon was above 100 µM in each case.
With `c1ccc2c(c1)-c1ccccc1C2NC1=NCCO1`, the TGI in the assay on NCI/ADR-RES ovarian was above 100 µM; in the assay on U251 CNS it was above 100 µM; with UO-31 renal, 50.7 µM; in the assay on DU-145 prostate, above 100 µM; in the assay on OVCAR-4 ovarian, above 100 µM; with IGROV1 ovarian it was 40.3 µM. The TGI is above 100 µM in the assay with K-562 leukemia, 21.3 µM in the assay with HCT-15 colon, 32.1 µM with HCT-116 colon and 41 µM with COLO 205 colon.
As to `N=c1oc2cc(O)ccc2cc1C(=O)Nc1cccc2ccccc12`, the TGI in the assay with NCI/ADR-RES ovarian is 4.43 µM; in the assay with U251 CNS it was 12.4 µM; in the assay on UO-31 renal it was 19.9 µM; in the assay with DU-145 prostate, 20 µM; in the assay on OVCAR-4 ovarian, above 51.1 µM; in the assay with IGROV1 ovarian, 14.4 µM. Besides, the TGI in the assay on K-562 leukemia was above 42.7 µM; with HCT-15 colon it was 11.5 µM; in the assay with HCT-116 colon it was 14.7 µM; in the assay on COLO 205 colon it was 34.6 µM.
For `CN(/N=C/C=N/N(C)C1=NCCN1)C1=NCCN1`, the TGI with NCI/ADR-RES ovarian, with U251 CNS, with UO-31 renal, in the assay with DU-145 prostate, in the assay on OVCAR-4 ovarian and in the assay on IGROV1 ovarian was above 100 µM each time. Besides, the TGI in the assay on K-562 leukemia, with HCT-15 colon, in the assay with HCT-116 colon and with COLO 205 colon was above 100 µM each time.
Take `Cc1cccc(-c2nc(-c3cnccn3)n(Cc3ccccc3)n2)c1`: the TGI in the assay with NCI/ADR-RES ovarian, in the assay on U251 CNS, with UO-31 renal, in the assay with DU-145 prostate, with OVCAR-4 ovarian and in the assay with IGROV1 ovarian was above 100 µM throughout. Further, the TGI with K-562 leukemia, in the assay on HCT-15 colon, in the assay on HCT-116 colon and in the assay on COLO 205 colon was above 100 µM each time.
Consider `C=C(C)[C@H]1CC(=O)[C@@]2(C)C[C@H]3O[C@]3(C)CC/C=C(\C)CC[C@H]12`, for which the TGI in the assay with NCI/ADR-RES ovarian, with U251 CNS, in the assay on UO-31 renal, in the assay on DU-145 prostate, in the assay on OVCAR-4 ovarian and in the assay on IGROV1 ovarian was above 100 µM throughout. The TGI was 47.2 µM in the assay with K-562 leukemia, above 100 µM with HCT-15 colon, 85.4 µM in the assay on HCT-116 colon and 44.4 µM with COLO 205 colon.
On to `O=C(OCC(OC(=O)c1ccccc1)C1CC(C2(O)CCCCC2)C(=O)O1)c1ccccc1` (stereo not given), for which the TGI is above 25 µM in the assay with NCI/ADR-RES ovarian; above 25 µM in the assay on U251 CNS; 3.88 µM in the assay with UO-31 renal; above 25 µM in the assay on DU-145 prostate; above 25 µM with OVCAR-4 ovarian; above 25 µM in the assay on IGROV1 ovarian. Also, the TGI with K-562 leukemia, in the assay with HCT-15 colon, in the assay with HCT-116 colon and in the assay with COLO 205 colon was above 25 µM in each case.
For `CCCCCCc1cc2cc(C(=O)Nc3cccc(F)c3)c(=N)oc2cc1O`, the TGI is 7.54 µM with NCI/ADR-RES ovarian; 6.58 µM in the assay on U251 CNS; 12.4 µM in the assay on UO-31 renal; 12.2 µM in the assay with DU-145 prostate; 12.3 µM with OVCAR-4 ovarian; 4 µM in the assay on IGROV1 ovarian. Further, the TGI in the assay on K-562 leukemia came out at 10.5 µM; with HCT-15 colon it was 5.87 µM; in the assay on HCT-116 colon, 11.1 µM; in the assay with COLO 205 colon, 34.7 µM.
Take `Cc1ccc(-c2cc(=O)c(=O)[nH][nH]2)cc1`: the TGI in the assay on NCI/ADR-RES ovarian, with U251 CNS, with UO-31 renal, in the assay with DU-145 prostate, in the assay on OVCAR-4 ovarian and in the assay on IGROV1 ovarian was above 100 µM throughout. In addition, the TGI with K-562 leukemia, in the assay with HCT-15 colon, with HCT-116 colon and in the assay on COLO 205 colon was above 100 µM throughout.
Consider `O=C(CC(=O)N1N=C(N(c2ccccc2)c2ccccc2)CC1c1ccccc1)Nc1cccc(Cl)c1` (stereo not given), for which the TGI with NCI/ADR-RES ovarian, in the assay with U251 CNS, with UO-31 renal, in the assay with DU-145 prostate, in the assay on OVCAR-4 ovarian and in the assay on IGROV1 ovarian was above 100 µM in each case. In addition, the TGI in the assay with K-562 leukemia, with HCT-15 colon, in the assay on HCT-116 colon and with COLO 205 colon was above 100 µM throughout.

These data come from PubChem BioAssay (NCI).
